Like-named read-outs stand apart in the source and are kept apart here.
Assays:
[1] = biological target: T1, pDNA-PK ser2056 induction in FaDU spheroids (Homo sapiens, UniProt P78527); assay: Multicellular tumour spheroid + radiation, pDNA-PK inhibition, FaDU; assay type: cell-based; conditions: 20 Gy
T1 construct: host or cells: FaDu
Protocol: (§1) Multicellular tumour spheroids determination of compound inhibition of pDNA-PK induction following radiation. Tumour spheroids were grown to approximately 0.5 mm in diameter and irradiated with 20 Gy in combination with inhibitor test compounds to determine their potency. Inhibitor concentration for 50% reduction in pDNA-PK induction (IC50) was determined via immunohistochemical staining in spheroid cryosections taken 2 hours following radiation. For cell survival endpoint 8 Gy radiation was used and 3 hours following radiation spheroids were dissociated, counted and plated for colony forming endpoint.
Spheroid+radiation pDNA-PK. Radiation: 20 Gy. Drug: serial dilution 5 or 10 μM down to 3.5 nM (11 wells). Spheroids: 3-6 spheroids per well (300-500 μm diameter). 20% O2 and 5% CO2. 96 well plate format. Endpoint: fluorescent immunostain pDNA-PK ser2056 and image on microscope. Analysis: determine EC50 concentrations that decreases pDNA-PK induction […] after irradiation.
(§2) Multicellular tumour spheroids were used to determine potency of test compounds in a 3D tissue environment using inhibition of pDNA-PK induction following radiation or cell survival as the endpoint. For the pDNA-PK endpoint HCT116 or FaDU tumour spheroids were grown to approximately 0.5 mm in diameter and irradiated with 20 Gy in combination with inhibitor test compounds to determine their potency. Experiments were carried out in 96 well plates containing 0.7 mls of MEM media containing 10% FBS and 10 mM glucose under 20% O2 & 5% CO2 at 37° C. Following dilution of compounds 1:1000 from DMSO stocks, compounds were serially diluted from 10 μM down to 3.5 nM and 5-10 spheroids added. 96 well plates were constantly stirred to avoid spheroids settling during the course of the experiment. The inhibitor concentration for 50% reduction in pDNA-PK induction (EC50) was determined via immunohistochemical staining in spheroid cryosections taken 2 hours following radiation using anti-pDNA-PK (ser 2056) and fixed immediately in formalin following sectioning. For cell survival endpoint 8 Gy radiation was used and, 3 hours following radiation, spheroids were dissociated, counted and plated for colony forming endpoint. Data presented in the table compound potency as EC50 [μM].

[2] = biological target: T2, pDNA-PK ser2056 induction in HCT116 spheroids (Homo sapiens, UniProt P78527); assay: Multicellular tumour spheroid + radiation, pDNA-PK inhibition, HCT116; assay type: cell-based; conditions: 20 Gy
T2 construct: endogenous in cells; host or cells: HCT116 multicellular tumour spheroids
Outline: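 HCT116 spheroids (~0.5 mm) in MEM/10% FBS/10 mM glucose, 20% O2, 37 °C, pre-incubated 1 h with compound (10 or 5 μM down to 3.5 nM), irradiated 20 Gy, incubated 2 h more. Cryosections immunostained for pDNA-PK ser2056; EC50 (μM) for 50% reduction of radiation-induced pDNA-PK.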

HCT116 spheroids = assay: Spheroid + radiation colony forming cell survival assay (SF), HCT116; assay type: cell-based; conditions: 8 Gy
Protocol: as §1
Spheroid+radiation colony forming cell survival assay (SF). Radiation 8 Gy. Drug: serial dilution 5 μM down to 10 nM (12 wells×2 repeat). Spheroids: 5-10 spheroids per well ([…]). HCT116. 5% O2 and 5% CO2. 96 well pate format for assay. Protocol: pre incubate 1 hour with drug, irradiate 8 Gy, post incubate 3 hrs with drug, dissociate spheroids and count cells and plate for colony forming assay. Endpoint: wait 4-7 days and count colonies. Analysis: determine EC50 concentration that increase cell kill by 50% over radiation alone.
as §2

[3] = Microsomal stability assay, mouse liver microsomes; conditions: for microsomal CLint at 0.1 uM: male, CD-1, mouse, liver microsomes, pH 7.4, Microsomal Stability Mouse Clint, 0.1 mg/mL microsomes, 0.1 uM compound
Protocol: Mouse liver microsomes were obtained from a pool of 250 or more male CD-1 mice. […] Final microsomal concentration was 0.1 mg/mL and test compound concentration was 0.1 uM with a maximum of 0.01% DMSO. The test compound was pre-incubated with pooled liver microsomes in phosphate buffer (pH 7.4) for 5 min in a 37° C. shaking water bath. The reaction was initiated by adding NADPH-generating system and incubated for 0, 15, 30, 45, and 60 min. The reaction was stopped by transferring the incubation mixture to acetonitrile/methanol. Samples were then mixed and centrifuged. Supernatants were used for HPLC-MS/MS analysis. The HPLC system consisted of a binary LC pump with autosampler, a C-18 column, and a gradient. Peak areas corresponding to the test compound were recorded. The compound remaining was calculated by comparing the peak area at each time point to time zero. The half-life was calculated from the slope of the initial linear range of the logarithmic curve of compound remaining (%) vs. time, assuming first order kinetics. In addition, the intrinsic clearance (Clint) was calculated from the half-life.

[4] = Hepatocyte stability assay, mouse hepatocytes; assay type: in vitro ADME
Outline: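 Pooled cryopreserved hepatocytes (male CD-1 mouse, or mixed-gender human donors; ≥10 each) at 0.7 million viable cells/mL in Krebs-Henseleit buffer pH 7.3, with 1 uM compound (≤0.01% DMSO). Incubated up to 2 h at 37 °C/5% CO2, quenched with acetonitrile; parent compound followed by HPLC-MS/MS peak area.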

[5] = Example 8, spheroid, read-out: Cell line: FaDU Immunohistochemical endpoint pDNA-PK inhibition EC50
[6] = Example 9 Study 2, 20% O2, read-out: Spheroid Cell line: FaDU Immunohistochemical endpoint pDNA-PK inhibition EC50
[7] = Example 7, spheroid, cell line HCT115 [sic], 20% O2, read-out: EC50 (pDNA-PK inhibition, immunohistochemical endpoint)
[8] = Example 8, spheroid, read-out: Cell line: HCT116 Immunohistochemical endpoint pDNA-PK inhibition EC50
[9] = Example 9 Study 2, 20% O2, read-out: Spheroid Cell line: HCT116 Immunohistochemical endpoint pDNA-PK inhibition EC50
[10] = Example 8, spheroid, read-out: Cell line: HCT116 Colony forming endpoint Surviving Fraction EC50
[11] = Example 9 Study 2, read-out: Spheroid Cell line: HCT116 Colony forming endpoint Surviving Fraction EC50

SMILES	EC50 [1, 5] [nM]	EC50 [1, 6] [nM]	EC50 [2, 7] [nM]	EC50 [2, 8] [nM]	EC50 [2, 9] [nM]	Microsomal Stability (mouse) % rem. 60 min [3]	microsomal CLint at 0.1 uM [3] [µL/min/mg]	Hepatocyte Stability (mouse) % rem. 120 min ([4]; 120 min)	hepatocyte CLint at 1 uM ([4]; male, CD-1, mouse, cryopreserved hepatocytes, pH 7.3, 0.7 million cells per mL, 1 uM compound) [µL/min/1e6 cells]	EC50 (HCT116 spheroids; [10]) [nM]	EC50 (HCT116 spheroids; [11]) [nM]
Cc1cnc(N[C@H]2CC[C@@H](Oc3nc(N4CCOCC4)cc4ncccc34)CC2)nc1 [Compound 32, 5-Methyl-N-((1s,4s)-4-((7-morpholino-1,6-naphthyridin-5-yl)oxy)cyclohexyl)pyrimidin-2-amine]	500 to 1000	500 to 1000	1000 to 10000	1000 to 10000	1000 to 10000	E (% remaining = 0-25%)	> 116	–	–	10 to 500	10 to 500
FC(F)Oc1cnc(N[C@H]2CC[C@@H](Oc3nc(N4CCOCC4)cc4ncccc34)CC2)nc1 [Compound 35, 5-(Difluoromethoxy)-N-((1s,4s)-4-((7-morpholino-1,6-naphthyridin-5-yl)oxy)cyclohexyl)pyrimidin-2-amine]	–	–	1000 to 10000	1000 to 10000	1000 to 10000	E (% remaining = 0-25%)	> 116	–	–	1000 to 10000	1000 to 10000
CS(=O)(=O)Nc1cnc2cc(N3CCOCC3)nc(O[C@H]3CC[C@@H](n4ccnc4)CC3)c2c1 [Compound 161, N-(5-(((1s,4s)-4-(1H-imidazol-1-yl)cyclohexyl)oxy)-7-morpholino-1,6-naphthyridin-3-yl)methanesulfonamide]	1000 to 10000	1000 to 10000	1000 to 10000	1000 to 10000	1000 to 10000	F (% remaining = 25-50%)	< 116	G (% remaining = 50-75%)	< 8.2	–	–

The next lines start with results.

EC50 [1, 5] [nM]	EC50 [1, 6] [nM]	EC50 [2, 7] [nM]	EC50 [2, 8] [nM]	EC50 [2, 9] [nM]	Microsomal Stability (mouse) % rem. 60 min [3]	microsomal CLint at 0.1 uM [3] [µL/min/mg]	Hepatocyte Stability (mouse) % rem. 120 min ([4]; 120 min)	hepatocyte CLint at 1 uM ([4]; male, CD-1, mouse, cryopreserved hepatocytes, pH 7.3, 0.7 million cells per mL, 1 uM compound) [µL/min/1e6 cells]	SMILES	EC50 (HCT116 spheroids; [10]) [nM]	EC50 (HCT116 spheroids; [11]) [nM]
500 to 1000	500 to 1000	1000 to 10000	1000 to 10000	1000 to 10000	E (% remaining = 0-25%)	> 116	–	–	Fc1cn([C@H]2CC[C@@H](Oc3nc(N4CCOCC4)cc4ncccc34)CC2)cn1 [Compound 17a, 4-(5-(((1s,4s)-4-(4-fluoro-1H-imidazol-1-yl)cyclohexyl)oxy)-1,6-naphthyridin-7-yl)morpholine]	10 to 500	10 to 500
500 to 1000	500 to 1000	1000 to 10000	1000 to 10000	1000 to 10000	–	–	–	–	COc1cnc(N[C@H]2CC[C@@H](Oc3nc(N4CCOCC4)cc4ncc(O)cc34)CC2)nc1 [Compound 19c, 5-(((1s,4s)-4-((5-Methoxypyrimidin-2-yl)amino)cyclohexyl)oxy)-7-morpholino-1,6-naphthyridin-3-ol]	10 to 500	10 to 500
500 to 1000	500 to 1000	500 to 1000	500 to 1000	500 to 1000	E (% remaining = 0-25%)	> 116	–	–	FC(F)(F)c1cncn1[C@H]1CC[C@@H](Oc2nc(N3CCOCC3)cc3ncccc23)CC1 [Compound 17j, 4-(5-(((1s,4s)-4-(5-(trifluoromethyl)-1H-imidazol-1-yl)cyclohexyl)oxy)-1,6-naphthyridin-7-yl)morpholine]	500 to 1000	500 to 1000

— patent US20240246960A1 (adMare Therapeutics Society, priority 2021, published 2024)
